These results are taken from PMC5218480 (PLoS ONE, 2017).

The subject of the assay is MV-4-11 cells. In words: Gene expression microarray analysis (Affymetrix PrimeView) and GSEA. To be noted: ProbeSet 11727641_at; LIST B. Also noted: RFU PODN (11730768_x_at) / Fold change /veh PODN (11730768_x_at) / RFU LINC00158 (11744669_a_at) / Fold change /veh LINC00158 (11744669_a_at) / RFU DUSP10 (11751237_a_at) / Fold change /veh DUSP10 (11751237_a_at) / RFU ID3 (11757404_x_at) / Fold change /veh ID3 (11757404_x_at) / RFU PLEKHG5 (11737974_s_at) / Fold change /veh PLEKHG5 (11737974_s_at) / RFU LRRC4B (11730491_at) / Fold change /veh LRRC4B (11730491_at) / RFU GIMAP4 (11747438_a_at) / Fold change /veh GIMAP4 (11747438_a_at) / RFU KRT8 (11758183_x_at) / Fold change /veh KRT8 (11758183_x_at) / RFU CNN1 (11734310_a_at) / Fold change /veh CNN1 (11734310_a_at) / RFU VPS37D (11726825_at) / Fold change /veh VPS37D (11726825_at) / RFU C10orf10 (11716522_x_at) / Fold change /veh C10orf10 (11716522_x_at) / RFU KIR2DL2 /// KIR2DL4 /// KIR2DL5A /// KIR2DL5B /// KIR2DS1 /// KIR2DS2 /// KIR2DS3 /// KIR2DS4 /// KIR3DL3 /// KIR3DL3 /// KIR3DS1 (11738374_at) / Fold change /veh KIR2DL2 /// KIR2DL4 /// KIR2DL5A /// KIR2DL5B /// KIR2DS1 /// KIR2DS2 /// KIR2DS3 /// KIR2DS4 /// KIR3DL3 /// KIR3DL3 /// KIR3DS1 (11738374_at) / RFU C1QL1 (11718748_at) / Fold change /veh C1QL1 (11718748_at) / RFU TMPRSS4 (11747572_a_at) / Fold change /veh TMPRSS4 (11747572_a_at) / RFU HAMP (11756126_x_at) / Fold change /veh HAMP (11756126_x_at) / RFU RNFT2 (11725882_a_at) / Fold change /veh RNFT2 (11725882_a_at) / RFU NR4A2 (11747474_a_at) / Fold change /veh NR4A2 (11747474_a_at) / RFU ABCC12 (11746883_a_at) / Fold change /veh ABCC12 (11746883_a_at) / RFU TMEM136 (11760407_x_at) / Fold change /veh TMEM136 (11760407_x_at) / RFU CLDN22 /// WWC2 (11732394_at) / Fold change /veh CLDN22 /// WWC2 (11732394_at) / RFU HLA-DPB1 (11760878_x_at) / Fold change /veh HLA-DPB1 (11760878_x_at) / RFU SPINT1 (11716480_a_at) / Fold change /veh SPINT1 (11716480_a_at) / RFU GAP43 (11754022_s_at) / Fold change /veh GAP43 (11754022_s_at) / RFU A4GNT (11735810_at) / Fold change /veh A4GNT (11735810_at) / RFU PRB3 (11715151_x_at) / Fold change /veh PRB3 (11715151_x_at) / RFU TUBB4B (11761932_at) / Fold change /veh TUBB4B (11761932_at) / RFU CAPN14 (11732068_a_at) / Fold change /veh CAPN14 (11732068_a_at) / RFU TMCC2 (11721928_a_at) / Fold change /veh TMCC2 (11721928_a_at) / RFU IRGQ (11745062_a_at) / Fold change /veh IRGQ (11745062_a_at) / RFU FAM174B (11720279_a_at) / Fold change /veh FAM174B (11720279_a_at) / RFU TMPRSS4 (11748680_a_at) / Fold change /veh TMPRSS4 (11748680_a_at) / RFU FAM212B (11763350_a_at) / Fold change /veh FAM212B (11763350_a_at) / RFU PLEKHG5 (11743358_a_at) / Fold change /veh PLEKHG5 (11743358_a_at) / RFU ZSCAN30 (11745921_a_at) / Fold change /veh ZSCAN30 (11745921_a_at) / RFU CMKLR1 (11741424_a_at) / Fold change /veh CMKLR1 (11741424_a_at) / RFU LOC101060620 /// MAPK8IP1 (11723275_at) / Fold change /veh LOC101060620 /// MAPK8IP1 (11723275_at) / RFU SPTSSB (11747773_x_at) / Fold change /veh SPTSSB (11747773_x_at) / RFU PRSS12 (11739890_at) / Fold change /veh PRSS12 (11739890_at) / RFU BIN1 (11741810_x_at) / Fold change /veh BIN1 (11741810_x_at) / RFU WNT11 (11732464_a_at) / Fold change /veh WNT11 (11732464_a_at) / RFU C10orf10 (11716521_a_at) / Fold change /veh C10orf10 (11716521_a_at) / RFU C5orf56 (11738089_at) / Fold change /veh C5orf56 (11738089_at) / RFU CYB561 (11721691_x_at) / Fold change /veh CYB561 (11721691_x_at) / RFU ANKRD19P (11752326_a_at) / Fold change /veh ANKRD19P (11752326_a_at) / RFU OR2T12 /// OR2T33 /// OR2T8 (11738714_s_at) / Fold change /veh OR2T12 /// OR2T33 /// OR2T8 (11738714_s_at) / RFU VCAN (11748164_a_at) / Fold change /veh VCAN (11748164_a_at) / RFU JSRP1 (11732532_at) / Fold change /veh JSRP1 (11732532_at) / RFU KRTAP10-11 (11738290_x_at) / Fold change /veh KRTAP10-11 (11738290_x_at) / RFU MYO3A (11730013_a_at) / Fold change /veh MYO3A (11730013_a_at) / RFU EBF3 (11725865_a_at) / Fold change /veh EBF3 (11725865_a_at) / RFU CAMK2N1 (11719241_x_at) / Fold change /veh CAMK2N1 (11719241_x_at) / RFU C5orf56 (11738088_a_at) / Fold change /veh C5orf56 (11738088_a_at) / RFU OLFML3 (11715873_a_at) / Fold change /veh OLFML3 (11715873_a_at) / RFU LOC100653217 /// NTM (11731650_a_at) / Fold change /veh LOC100653217 /// NTM (11731650_a_at) / RFU MAPK11 (11762145_a_at) / Fold change /veh MAPK11 (11762145_a_at) / RFU FIZ1 (11724087_x_at) / Fold change /veh FIZ1 (11724087_x_at) / RFU OASL (11726364_x_at) / Fold change /veh OASL (11726364_x_at) / RFU SOX15 (11748057_x_at) / Fold change /veh SOX15 (11748057_x_at) / RFU CD79A (11719716_a_at) / Fold change /veh CD79A (11719716_a_at) / RFU HIST1H1D (11736915_at) / Fold change /veh HIST1H1D (11736915_at) / RFU CASKIN2 (11723855_a_at) / Fold change /veh CASKIN2 (11723855_a_at) / RFU LOC730098 (11760151_x_at) / Fold change /veh LOC730098 (11760151_x_at) / RFU OR4N2 (11742367_at) / Fold change /veh OR4N2 (11742367_at) / RFU PRRT2 (11749266_a_at) / Fold change /veh PRRT2 (11749266_a_at) / RFU SNX32 (11753110_a_at) / Fold change /veh SNX32 (11753110_a_at) / RFU CDHR5 (11726645_a_at) / Fold change /veh CDHR5 (11726645_a_at) / RFU RCAN1 (11760418_a_at) / Fold change /veh RCAN1 (11760418_a_at) / RFU FAM167A (11723789_a_at) / Fold change /veh FAM167A (11723789_a_at) / RFU FAM26E (11764081_at) / Fold change /veh FAM26E (11764081_at) / RFU ISYNA1 (11749810_s_at) / Fold change /veh ISYNA1 (11749810_s_at) / RFU ACY1 (11761880_at) / Fold change /veh ACY1 (11761880_at) / RFU 11764098_at / Fold change /veh 11764098_at / RFU SAMD14 (11745864_x_at) / Fold change /veh SAMD14 (11745864_x_at) / RFU NPB (11741838_a_at) / Fold change /veh NPB (11741838_a_at) / RFU TMPRSS6 (11731388_a_at) / Fold change /veh TMPRSS6 (11731388_a_at) / RFU KRTAP10-2 (11738614_at) / Fold change /veh KRTAP10-2 (11738614_at) / RFU ARHGAP8 /// PRR5-ARHGAP8 (11727945_x_at) / Fold change /veh ARHGAP8 /// PRR5-ARHGAP8 (11727945_x_at) / RFU KRTAP5-7 /// NADSYN1 (11734609_at) / Fold change /veh KRTAP5-7 /// NADSYN1 (11734609_at) / RFU RASL12 (11751679_a_at) / Fold change /veh RASL12 (11751679_a_at) / RFU CDKN2B (11736163_a_at) / Fold change /veh CDKN2B (11736163_a_at) / RFU PRF1 (11729649_at) / Fold change /veh PRF1 (11729649_at) / RFU, ZNF638 /// ZNF638-IT1 / Fold change vs veh, ZNF638 /// ZNF638-IT1 / RFU, PANK3 / Fold change vs veh, PANK3 / RFU, SH3YL1 / Fold change vs veh, SH3YL1 / RFU, ZEB2 / Fold change vs veh, ZEB2 / RFU, NRIP1 / Fold change vs veh, NRIP1 / RFU, PTTG1IP / Fold change vs veh, PTTG1IP / RFU, CAPN2 / Fold change vs veh, CAPN2 / RFU, MED14 / Fold change vs veh, MED14 / RFU, SNORA58 / Fold change vs veh, SNORA58 / RFU, C1orf63 / Fold change vs veh, C1orf63 / RFU, LRRFIP1 / Fold change vs veh, LRRFIP1 / RFU, NDUFAF7 / Fold change vs veh, NDUFAF7 / RFU, SLC12A2 / Fold change vs veh, SLC12A2 / RFU, IBTK / Fold change vs veh, IBTK / RFU, ESF1 / Fold change vs veh, ESF1 / Fold change vs veh, TMEM50B / RFU, TAOK1 / Fold change vs veh, TAOK1 / RFU, ACBD3 / Fold change vs veh, ACBD3 / RFU, TMA16 / Fold change vs veh, TMA16 / RFU, RWDD3 / Fold change vs veh, RWDD3 / RFU, BCAT1 / Fold change vs veh, BCAT1 / RFU, EDEM3 / Fold change vs veh, EDEM3 / RFU, TMEM33 / Fold change vs veh, TMEM33 / RFU, WDR75 / Fold change vs veh, WDR75 / RFU, AHCTF1 / Fold change vs veh, AHCTF1 / RFU, TFRC / Fold change vs veh, TFRC / RFU, ZDHHC17 / Fold change vs veh, ZDHHC17 / RFU, NOM1 / Fold change vs veh, NOM1 / RFU, ARL8B / Fold change vs veh, ARL8B / RFU, ZBTB11 / Fold change vs veh, ZBTB11 / RFU, TAMM41 / Fold change vs veh, TAMM41 / RFU, KIAA1704 /// LOC100996395 / Fold change vs veh, KIAA1704 /// LOC100996395 / RFU, ING1 / Fold change vs veh, ING1 / RFU, TRMT61B / Fold change vs veh, TRMT61B / RFU, FUBP3 / Fold change vs veh, FUBP3 / RFU, TP53 / Fold change vs veh, TP53 / RFU, TNKS2 / Fold change vs veh, TNKS2 / RFU, ZFP14 / Fold change vs veh, ZFP14 / RFU, ACTR2 / Fold change vs veh, ACTR2 / RFU, PPP3R1 / Fold change vs veh, PPP3R1 / RFU, PIK3R1 / Fold change vs veh, PIK3R1 / RFU, HNRNPA1 / Fold change vs veh, HNRNPA1 / RFU, RNF170 / Fold change vs veh, RNF170 / RFU, ZNF28 / Fold change vs veh, ZNF28 / RFU, RNGTT / Fold change vs veh, RNGTT / RFU, OGT / Fold change vs veh, OGT / RFU, BRD1 / Fold change vs veh, BRD1 / RFU, MARS / Fold change vs veh, MARS / RFU, ZNF655 / Fold change vs veh, ZNF655 / RFU, FAHD1 / Fold change vs veh, FAHD1 / RFU, BDP1 / Fold change vs veh, BDP1 / RFU, LRRCC1 / Fold change vs veh, LRRCC1 / RFU, ARID1A / Fold change vs veh, ARID1A / RFU, ZNF146 / Fold change vs veh, ZNF146 / RFU, ZNF330 / Fold change vs veh, ZNF330 / RFU, GPN3 / Fold change vs veh, GPN3 / RFU, C9orf123 / Fold change vs veh, C9orf123 / RFU, N4BP2L2 / Fold change vs veh, N4BP2L2 / RFU, ARFIP1 / Fold change vs veh, ARFIP1 / RFU, FAM179B / Fold change vs veh, FAM179B / RFU, BCL10 / Fold change vs veh, BCL10 / RFU, UHRF1BP1L / Fold change vs veh, UHRF1BP1L / RFU, BET1 / Fold change vs veh, BET1 / RFU, CNOT2 / Fold change vs veh, CNOT2 / RFU, ZNF268 / Fold change vs veh, ZNF268 / Fold change vs veh, ZNF507 / RFU, DGCR2 / Fold change vs veh, DGCR2 / RFU, WDSUB1 / Fold change vs veh, WDSUB1 / Fold change vs veh, HSP90B1 /// MIR3652 / RFU, ADSS / Fold change vs veh, ADSS / RFU, GK / Fold change vs veh, GK / RFU, ZNF148 / Fold change vs veh, ZNF148 / RFU, TAF9 / Fold change vs veh, TAF9 / RFU, SLC1A5 / Fold change vs veh, SLC1A5 / RFU, SLMO2 / Fold change vs veh, SLMO2 / RFU, ABCC4 / Fold change vs veh, ABCC4 / RFU, LOC101060439 /// RAP1B / Fold change vs veh, LOC101060439 /// RAP1B / RFU, RFX7 / Fold change vs veh, RFX7 / RFU, GTPBP10 / Fold change vs veh, GTPBP10 / RFU, CNEP1R1 / Fold change vs veh, CNEP1R1 / RFU, BIVM-ERCC5 /// ERCC5 / Fold change vs veh, BIVM-ERCC5 /// ERCC5 / RFU, ILF3 / Fold change vs veh, ILF3 / RFU 11762660_at / Fold change /veh 11762660_at / RFU VCAN (11757783_s_at) / Fold change /veh VCAN (11757783_s_at) / RFU DDX43 (11728927_at) / Fold change /veh DDX43 (11728927_at) / RFU KRT8 (11758188_x_at) / Fold change /veh KRT8 (11758188_x_at) / RFU NKD1 (11759106_at) / Fold change /veh NKD1 (11759106_at) / RFU SRD5A1 (11742802_a_at) / Fold change /veh SRD5A1 (11742802_a_at) / RFU TPSAB1 /// TPSB2 (11721975_s_at) / Fold change /veh TPSAB1 /// TPSB2 (11721975_s_at) / RFU GSTM3 (11746129_a_at) / Fold change /veh GSTM3 (11746129_a_at) / RFU IL23R (11737362_x_at) / Fold change /veh IL23R (11737362_x_at) / RFU TMEM51 (11727254_a_at) / Fold change /veh TMEM51 (11727254_a_at) / RFU PIWIL2 (11732686_x_at) / Fold change /veh PIWIL2 (11732686_x_at) / RFU ORM1 (11744905_x_at) / Fold change /veh ORM1 (11744905_x_at) / RFU CCDC152 (11743942_at) / Fold change /veh CCDC152 (11743942_at) / RFU ECM1 (11717891_a_at) / Fold change /veh ECM1 (11717891_a_at) / RFU IL23R (11748794_a_at) / Fold change /veh IL23R (11748794_a_at) / RFU TNFAIP8L3 (11732012_x_at) / Fold change /veh TNFAIP8L3 (11732012_x_at) / RFU MBOAT4 (11741988_at) / Fold change /veh MBOAT4 (11741988_at) / RFU 11764193_at / Fold change /veh 11764193_at / RFU TMEM53 (11763286_at) / Fold change /veh TMEM53 (11763286_at) / RFU MAGEB2 (11727129_at) / Fold change /veh MAGEB2 (11727129_at) / RFU TMEM200A (11744735_a_at) / Fold change /veh TMEM200A (11744735_a_at) / RFU CCDC152 (11751479_a_at) / Fold change /veh CCDC152 (11751479_a_at) / RFU FAM211A (11726209_a_at) / Fold change /veh FAM211A (11726209_a_at) / RFU RGS16 (11746705_a_at) / Fold change /veh RGS16 (11746705_a_at) / RFU VCAN (11755009_s_at) / Fold change /veh VCAN (11755009_s_at) / RFU RHOB (11743442_s_at) / Fold change /veh RHOB (11743442_s_at) / RFU RGS16 (11720943_a_at) / Fold change /veh RGS16 (11720943_a_at) / RFU RGS16 (11720944_at) / Fold change /veh RGS16 (11720944_at) / RFU, VPS4B / Fold change vs veh, VPS4B / RFU, CREB1 / Fold change vs veh, CREB1 / RFU, DNAJC13 / Fold change vs veh, DNAJC13 / RFU, GNAQ / Fold change vs veh, GNAQ / RFU, CDK5R1 / Fold change vs veh, CDK5R1 / RFU, ZRANB3 / Fold change vs veh, ZRANB3 / RFU, CUL4A / Fold change vs veh, CUL4A / RFU, CCNY / Fold change vs veh, CCNY / RFU, UFL1 / Fold change vs veh, UFL1 / RFU, COG3 / Fold change vs veh, COG3 / RFU, DIAPH2 / Fold change vs veh, DIAPH2 / RFU, SKA2 / Fold change vs veh, SKA2 / RFU, AFF3 / Fold change vs veh, AFF3 / RFU, LMF1 / Fold change vs veh, LMF1 / RFU, IPO11 / Fold change vs veh, IPO11 / RFU, DFFB / Fold change vs veh, DFFB / RFU, FOXP1 / Fold change vs veh, FOXP1 / RFU, CARD8 / Fold change vs veh, CARD8 / RFU, STRN3 / Fold change vs veh, STRN3 / RFU, ADK / Fold change vs veh, ADK / RFU, RASSF2 / Fold change vs veh, RASSF2 / RFU, WIPF1 / Fold change vs veh, WIPF1 / RFU, LARP1B / Fold change vs veh, LARP1B / RFU, RASA1 / Fold change vs veh, RASA1 / RFU, RB1 / Fold change vs veh, RB1 / RFU, PPFIA1 / Fold change vs veh, PPFIA1 / RFU, MAT2A / Fold change vs veh, MAT2A / RFU, CCT5 / Fold change vs veh, CCT5 / RFU, WDR92 / Fold change vs veh, WDR92 / RFU, CUX1 / Fold change vs veh, CUX1 / RFU, TTC7A / Fold change vs veh, TTC7A / RFU, TMEM135 / Fold change vs veh, TMEM135 / RFU, DEPTOR / Fold change vs veh, DEPTOR / RFU, CPM / Fold change vs veh, CPM / RFU, DNAJB6 / Fold change vs veh, DNAJB6 / RFU, CACNA2D3 / Fold change vs veh, CACNA2D3 / RFU, DTX4 / Fold change vs veh, DTX4 / RFU, TFCP2 / Fold change vs veh, TFCP2 / RFU, GMCL1 /// GMCL1P1 / Fold change vs veh, GMCL1 /// GMCL1P1 / RFU, AEBP2 / Fold change vs veh, AEBP2 / RFU, SNHG1 /// SNORD22 /// SNORD25 /// SNORD26 /// SNORD27 /// SNORD28 /// SNORD29 /// SNORD31 / Fold change vs veh, SNHG1 /// SNORD22 /// SNORD25 /// SNORD26 /// SNORD27 /// SNORD28 /// SNORD29 /// SNORD31 / Fold change (Aza/veh), C12orf56 (ProbeSet 11735607_a_at) / Fold change (ACY-1035/veh), C12orf56 (ProbeSet 11735607_a_at) / Fold change (Aza/veh), FGFR1OP (ProbeSet 11751329_s_at) / Fold change (ACY-1035/veh), FGFR1OP (ProbeSet 11751329_s_at) / Fold change (Aza/veh), VPS36 (ProbeSet 11739960_a_at) / Fold change (ACY-1035/veh), VPS36 (ProbeSet 11739960_a_at) / RFU SYPL1 (11715823_x_at) / Fold change /veh SYPL1 (11715823_x_at) / RFU IGFBP7 (11715501_s_at) / Fold change /veh IGFBP7 (11715501_s_at) / RFU REEP3 (11722064_at) / Fold change /veh REEP3 (11722064_at) / RFU IGLL1 (11728026_x_at) / Fold change /veh IGLL1 (11728026_x_at): dose or concentration left out as unconfirmed. The assay is classed as cell-based, human.

Each structure is given as a SMILES string.

Take `Nc1ccc(-c2cccs2)cc1NC(=O)c1ccc2c(c1)cc(C1CC1)n2CCN1CCOCC1` [ACY-1035]: the “RFU, NOM1” value is 160.01 RFU.
